Type in all cases: cell-based
What all share (parameters): expressed in transfected cells; host or cells: HEK293 cells transfected with VIPR2 in pCDNA3.1 (as described)

Assay [1] concerns the target T1, VIPR2 (Homo sapiens, UniProt P41587).
T1 sequence (P41587 24-438): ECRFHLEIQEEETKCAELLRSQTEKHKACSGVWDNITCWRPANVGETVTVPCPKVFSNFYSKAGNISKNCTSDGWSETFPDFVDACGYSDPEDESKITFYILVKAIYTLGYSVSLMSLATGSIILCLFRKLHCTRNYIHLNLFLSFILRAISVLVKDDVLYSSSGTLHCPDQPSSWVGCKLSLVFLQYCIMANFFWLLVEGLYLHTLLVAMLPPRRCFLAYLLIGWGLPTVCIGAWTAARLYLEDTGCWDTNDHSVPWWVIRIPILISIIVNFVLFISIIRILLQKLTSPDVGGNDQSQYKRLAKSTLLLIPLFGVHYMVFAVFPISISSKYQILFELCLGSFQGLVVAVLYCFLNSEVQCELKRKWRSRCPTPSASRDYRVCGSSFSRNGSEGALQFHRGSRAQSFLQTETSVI
The assay is described as follows: Inhibition of VIP-induced β-arrestin recruitment (% Activity Arrestin). In outline: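 HEK293 cells stably expressing β-arrestin2–β-gal EA, transiently transfected with ProLink-tagged hVIPR2, plated overnight; inhibitor added for 2 h at 37 °C, 5% CO2. Receptor–arrestin complementation read by chemiluminescence after 5 min–1 h at room temperature; inhibition of VIP-induced recruitment reported as % activity.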
On the technique in general: Arrestin recruitment assays detect the binding of arrestin to an activated receptor.

The target of assay [2] is T1, VIPR2. As to the kind of experiment: % Activity: inhibition of VIP-induced cAMP elevation and β-arrestin recruitment (Table 2). The essentials: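 cAMP: HEK293 stably expressing hVIPR2, inhibitor plus VIP 30 min, cAMP by HTRF (665/620 nm ratio ×10,000). β-arrestin: HEK293 with β-arrestin2-β-gal-EA, transiently transfected with VIPR2-ProLink; inhibitor 2 h at 37° C, enzyme complementation read by luminescence.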

Assay [3] has as its target T1, VIPR2. The assay is described as follows: Inhibition of VIP-induced cAMP elevation (% Activity cAMP). In outline: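 HEK293 cells stably transfected with human VIPR2 were incubated with inhibitor and VIP for 30 min, then cAMP was detected by HTRF after at least 1 h at room temperature. The 665/620 nm ratio ×10,000 was calculated.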

Turning to `O=C(NC1CCCc2ccccc21)[C@@H](Cc1ccccc1)C[C@H](O)CNS(=O)(=O)c1ccc([N+](=O)[O-])cc1` (stereo partly drawn) [Compound B13B], on VIPR2 [1] (Batch 2), the inhibition at 0.5 µM came out at 4.8%, the inhibition at 1 µM is 6.9% and the inhibition at 5 µM was 0.6%. For the same compound, the “% Activity” value at VIPR2 [2] was 9.0000%. On VIPR2 [3] (Batch 2), the inhibition at 0.5 µM was 5.1%, the inhibition at 1 µM was 6.6% and the inhibition at 5 µM was 17.4%.

`CCCCNC(=O)[C@H](Cc1ccccc1)C[C@H](O)CNS(=O)(=O)c1ccc([N+](=O)[O-])cc1` [Compound B7A]: on VIPR2 [1] (Batch 2), the inhibition at 0.5 µM is -5.6%, the inhibition at 1 µM was found to be 1.9% and the inhibition at 5 µM stood at 13.8%. Besides, the “% Activity” value at VIPR2 [2] is on record as 9.55%. In addition, on VIPR2 [3] (Batch 2), the inhibition at 0.5 µM amounted to 0.9%, the inhibition at 1 µM is 5.1% and the inhibition at 5 µM is 5.3%.

Regarding `C[C@H](CC(C)(C)C)NC(=O)[C@H](Cc1ccccc1)C[C@H](O)CNS(=O)(=O)c1ccc([N+](=O)[O-])cc1` [Compound B10A], on VIPR2 [1] (Batch 2), the inhibition at 0.5 µM was found to be 23.3%, the inhibition at 1 µM amounted to 3% and the inhibition at 5 µM was -10.3%. The “% Activity” value at VIPR2 [2] is given as −5.2%. Moreover, on VIPR2 [3] (Batch 2), the inhibition at 0.5 µM was -7.9%, the inhibition at 1 µM was found to be 4.4% and the inhibition at 5 µM is -0.1%.

For the compound `CNc1ccc(S(=O)(=O)NC[C@@H](O)C[C@@H](Cc2ccccc2)C(=O)N[C@H]2c3ccccc3C[C@H]2O)cc1` [Compound X082], on VIPR2 [1] (Batch 3), the inhibition at 0.5 µM was -0.8%, the inhibition at 1 µM worked out at 1.1% and the inhibition at 5 µM amounted to 4.3%. Also, the “% Activity” value on VIPR2 [2] is given as −1.5%. Moreover, on VIPR2 [3] (Batch 3), the inhibition at 0.5 µM was -0.9%, the inhibition at 1 µM is 2% and the inhibition at 5 µM was -7.3%.

`CCCNc1ccc(S(=O)(=O)NC[C@@H](O)C[C@@H](Cc2ccccc2)C(=O)N[C@H]2c3ccccc3C[C@H]2O)cc1` [Compound X084]: at VIPR2 [1] (Batch 3), the inhibition at 0.5 µM turned out to be 4.1%, the inhibition at 1 µM was found to be 2.6% and the inhibition at 5 µM stood at 6.7%. Moreover, the “% Activity” value at VIPR2 [2] turned out to be 15.6%. Moreover, on VIPR2 [3] (Batch 3), the inhibition at 0.5 µM was -2.9%, the inhibition at 1 µM is 11.3% and the inhibition at 5 µM came to 24.5%.

With `NC[C@@H](O)C[C@@H](Cc1ccccc1)C(=O)N[C@H]1c2ccccc2C[C@H]1O` [Compound A28], on VIPR2 [1] (Batch 1), the inhibition at 0.5 µM worked out at 3.7%, the inhibition at 1 µM stood at 1.4% and the inhibition at 5 µM worked out at 19.7%. The “% Activity” value at VIPR2 [2] is listed as 17.45%. On VIPR2 [3] (Batch 1), the inhibition at 0.5 µM was determined as 11.8%, the inhibition at 1 µM is 15.9% and the inhibition at 5 µM turned out to be 15.2%.

For `Cc1ccc(S(=O)(=O)NC[C@@H](O)C[C@@H](Cc2ccccc2)C(=O)N[C@H]2c3ccccc3C[C@H]2O)c(C)c1` [N], on VIPR2 [1] (Batch 1), the inhibition at 0.5 µM was 2.8%, the inhibition at 1 µM came out at 20.3% and the inhibition at 5 µM came out at 31.8%. Besides, the “% Activity” value on VIPR2 [2] was 27.55%. Further, at VIPR2 [3] (Batch 1), the inhibition at 0.5 µM was 14.1%, the inhibition at 1 µM turned out to be 10.9% and the inhibition at 5 µM was found to be 23.3%.

With `CC(C)C(=O)NC[C@@H](O)C[C@@H](Cc1ccccc1)C(=O)N[C@H]1c2ccccc2C[C@H]1O` [Compound A13], on VIPR2 [1] (Batch 1), the inhibition at 0.5 µM was -11.8%, the inhibition at 1 µM was -10.7% and the inhibition at 5 µM is -16.3%. Also, the “% Activity” value on VIPR2 [2] is given as −8.6%. On VIPR2 [3] (Batch 1), the inhibition at 0.5 µM stood at 0.7%, the inhibition at 1 µM was 2.6% and the inhibition at 5 µM was -0.9%.

On to `COc1ccc(S(=O)(=O)NC[C@@H](O)C[C@@H](Cc2ccccc2)C(=O)N[C@H]2c3ccccc3C[C@H]2O)cc1OC` [S], for which, at VIPR2 [1] (Batch 1), the inhibition at 0.5 µM was determined as 10.5%, the inhibition at 1 µM was determined as 23.2% and the inhibition at 5 µM amounted to 32%. Further, the “% Activity” value at VIPR2 [2] amounted to 30.1%. Further, on VIPR2 [3] (Batch 1), the inhibition at 0.5 µM came to 21.1%, the inhibition at 1 µM stood at 20.4% and the inhibition at 5 µM was 28.2%.

For `O=C([C@H](Cc1ccccc1)C[C@H](O)CNS(=O)(=O)c1ccc([N+](=O)[O-])cc1)N1CCC(CO)CC1` [Compound B19], on VIPR2 [1] (Batch 2), the inhibition at 0.5 µM is -8.4%, the inhibition at 1 µM is -17.8% and the inhibition at 5 µM is -4.5%. Further, on VIPR2 [2], the “% Activity” value stood at 0.85%. On VIPR2 [3] (Batch 2), the inhibition at 0.5 µM turned out to be 2.1%, the inhibition at 1 µM was 4.4% and the inhibition at 5 µM is 6.2%.

For the compound `CCNC(=O)[C@H](Cc1ccccc1)C[C@H](O)CNS(=O)(=O)c1ccc([N+](=O)[O-])cc1` [Compound B16A], on VIPR2 [1] (Batch 2), the inhibition at 0.5 µM stood at 15.2%, the inhibition at 1 µM worked out at 0.1% and the inhibition at 5 µM was -12.3%. The “% Activity” value on VIPR2 [2] is reported as −9.25%. Also, on VIPR2 [3] (Batch 2), the inhibition at 0.5 µM was -7.1%, the inhibition at 1 µM was -0.4% and the inhibition at 5 µM was -6.2%.

With `C#CCNC(=O)[C@H](Cc1ccccc1)C[C@H](O)CNS(=O)(=O)c1ccc([N+](=O)[O-])cc1` [Compound B21A], on VIPR2 [1] (Batch 2), the inhibition at 0.5 µM turned out to be 9.4%, the inhibition at 1 µM is 7.2% and the inhibition at 5 µM is -0.2%. Also, the “% Activity” value on VIPR2 [2] was 3.55%. At VIPR2 [3] (Batch 2), the inhibition at 0.5 µM is 5.4%, the inhibition at 1 µM is 7.8% and the inhibition at 5 µM stood at 7.3%.

`O=C(N[C@H]1c2ccccc2C[C@H]1O)[C@H](Cc1ccccc1)C[C@H](O)CNS(=O)(=O)c1ccccc1C(F)(F)F` [R]: at VIPR2 [1] (Batch 1), the inhibition at 0.5 µM came to 10.7%, the inhibition at 1 µM worked out at 24.8% and the inhibition at 5 µM worked out at 21%. For the same compound, the “% Activity” value on VIPR2 [2] is recorded as 22.85%. Further, at VIPR2 [3] (Batch 1), the inhibition at 0.5 µM came out at 23%, the inhibition at 1 µM stood at 18.8% and the inhibition at 5 µM was 24.7%.

In the case of `CC1CCC(NC(=O)[C@H](Cc2ccccc2)C[C@H](O)CNS(=O)(=O)c2ccc([N+](=O)[O-])cc2)CC1` (stereo partly drawn) [Compound B8A], at VIPR2 [1] (Batch 2), the inhibition at 0.5 µM worked out at 13.4%, the inhibition at 1 µM was -1.3% and the inhibition at 5 µM stood at 0.4%. For the same compound, the “% Activity” value on VIPR2 [2] is given as −1.2%. Moreover, on VIPR2 [3] (Batch 2), the inhibition at 0.5 µM is -5%, the inhibition at 1 µM was -2.5% and the inhibition at 5 µM is -2.8%.

Turning to `O=C(Cc1cccc(Cl)c1)NC[C@@H](O)C[C@@H](Cc1ccccc1)C(=O)N[C@H]1c2ccccc2C[C@H]1O` [Compound A19], at VIPR2 [1] (Batch 1), the inhibition at 0.5 µM amounted to 11.3%, the inhibition at 1 µM was determined as 20.1% and the inhibition at 5 µM is 17.2%. Further, the “% Activity” value on VIPR2 [2] was 21.85%. Further, at VIPR2 [3] (Batch 1), the inhibition at 0.5 µM amounted to 14.4%, the inhibition at 1 µM was determined as 16% and the inhibition at 5 µM was determined as 26.5%.

Take `O=C(NC[C@@H](O)C[C@@H](Cc1ccccc1)C(=O)N[C@H]1c2ccccc2C[C@H]1O)c1ccccn1` [Compound A17]: on VIPR2 [1] (Batch 1), the inhibition at 0.5 µM is 6.1%, the inhibition at 1 µM worked out at 32.7% and the inhibition at 5 µM came out at 5.5%. In addition, at VIPR2 [2], the “% Activity” value came to 12.9%. For the same compound, at VIPR2 [3] (Batch 1), the inhibition at 0.5 µM was found to be 14.9%, the inhibition at 1 µM was found to be 17.7% and the inhibition at 5 µM turned out to be 20.3%.

In the case of `C#CCNC(=O)[C@@H](Cc1ccccc1)C[C@H](O)CNS(=O)(=O)c1ccc([N+](=O)[O-])cc1` [Compound B21B], on VIPR2 [1] (Batch 2), the inhibition at 0.5 µM stood at 3.3%, the inhibition at 1 µM is 3.4% and the inhibition at 5 µM was determined as 7%. Besides, the “% Activity” value on VIPR2 [2] is given as 10.25%. For the same compound, on VIPR2 [3] (Batch 2), the inhibition at 0.5 µM was determined as 3.1%, the inhibition at 1 µM was 7.3% and the inhibition at 5 µM turned out to be 13.5%.

Take `O=C(NC[C@@H](O)C[C@@H](Cc1ccccc1)C(=O)N[C@H]1c2ccccc2C[C@H]1O)c1ccncc1` [Compound A18]: at VIPR2 [1] (Batch 1), the inhibition at 0.5 µM was -39.7%, the inhibition at 1 µM was determined as 10.9% and the inhibition at 5 µM is -8.8%. In addition, on VIPR2 [2], the “% Activity” value worked out at 6.1%. Besides, on VIPR2 [3] (Batch 1), the inhibition at 0.5 µM was found to be 14.2%, the inhibition at 1 µM came out at 19.2% and the inhibition at 5 µM was 21%.

What is called inhibition is the drop in the measured response relative to a control, in per cent.

The record behind these values is US20150239831A1, “INHIBITORS OF CENTRAL NERVOUS SYSTEM VASOACTIVE INHIBITORY PEPTIDE RECEPTOR 2” (The Trustees Of Columbia University In The City Of New York, priority 2012, published 2015).
